What all share (test): NCI tumour cell line growth inhibition, 48 h
Assay [1] has as its system DU-145 prostate.
Assay [2] concerns T-47D breast.
Assay [3] relates to HCT-116 colon.
Assay [4] deals with HS 578T breast.
Assay [5] concerns OVCAR-4 ovarian.
For assay [6], the system named is ACHN renal.
For assay [7], the system named is RXF 393 renal.
Assay [8] has as its system M14 melanoma.
For assay [9], the system named is RPMI-8226 leukemia.
For assay [10], the system named is MDA-MB-435.

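Five concentrations, 48 hours, 96-well plates. At the GI50, growth is halved. TGI denotes the concentration required for complete inhibition of growth.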 Where a SMILES comes first, the peptide text is derived from it.

Consider `COC1CC(CC2CCC(C)C(C(C)C(=O)O)O2)OC2(OC(C)(C3CCC(C)(C4OC(C5OC(O)(CO)C(C)CC5C)CC4C)O3)CC2C)C1C` (stereo not given), for which the TGI in [1] is more than 100 µM; in assay [2], 2.41 µM; in assay [3], 15.6 µM; in [4], more than 35.2 µM; in assay [5] it was 53.1 µM; in [6], 45.1 µM. The TGI came out at 1.15 µM in [7], 5.82 µM in assay [8], 8.39 µM in [9] and 11.1 µM in assay [10].

Take `O=S(=O)(O)c1cc(N=[N+]([O-])c2cc(S(=O)(=O)O)c3ccccc3c2)cc2ccccc12`: the TGI in assay [1] was 40.1 µM; in assay [2], more than 100 µM; in [3], more than 100 µM; in assay [4] it was more than 100 µM; in assay [5] it was 38.2 µM; in assay [6], more than 100 µM. Further, the TGI in [7], in assay [8], in [9] and in assay [10] was more than 100 µM throughout.

For `O=C1CC(c2ccc(Cl)cc2)C2(C(=O)NC(=O)NC2=O)C(c2ccc(Cl)cc2)C1` (stereo not given), the TGI in [1] was more than 75 µM; in assay [2] it was more than 75 µM; in [3], more than 75 µM; in [5], more than 75 µM; in [6], more than 75 µM; in assay [7] it was 52.2 µM. Besides, the TGI in assay [8] is more than 75 µM; in assay [9], 32.6 µM; in assay [10], 43.8 µM.

On to `CC(C)C1OC(=O)/C=C/C=C/C=C/C=C/C=C/CC(O)C(C)C(O)CC(O)CC(O)CC(O)CC(O)CC(O)CC(O)/C=C/C1C` (stereo not given), for which the TGI in [4], in assay [5], in assay [6], in assay [8], in assay [9] and in assay [10] was more than 100 µM in each case.

For the compound `C1=CC(=[N+]2N=C(c3ccccc3)CC2c2ccccc2)C=CC1=C1SC(c2ccccc2)(c2ccccc2)c2ccccc21` (stereo not given), the TGI in assay [1], in assay [2], in assay [3], in [4], in [6] and in assay [7] was more than 100 µM each time. Moreover, the TGI in [8] and in assay [10] was more than 100 µM throughout.

In the case of `O=C1CC2(CCC(O)(c3cccs3)C(C(=O)c3cccs3)C2)C(=O)c2ccccc2N1` (stereo not given), the TGI in [1], in assay [2], in assay [3], in assay [4], in assay [7] and in assay [8] was more than 100 µM throughout. Moreover, the TGI in assay [10] is more than 100 µM.

On to `O=C(Cn1c2ccc(Br)cc2c2nc3ccccc3nc21)N/N=C/c1ccccc1`, for which the TGI in assay [1], in [2], in [6], in [7], in assay [8] and in assay [10] was more than 100 µM throughout.

`CC(C)(C)[Si](C)(C)OCC1OC(n2cnc3c(N)ncnc32)CC1OS(C)(=O)=O` (stereo not given): the TGI in assay [1], in [2], in assay [3], in [5], in assay [7] and in assay [8] was more than 100 µM in each case. The TGI in [9] and in assay [10] was more than 100 µM in each case.

Consider `CCCN1C(=O)CSC1=Nc1ccc2cc3ccc(N=C4SCC(=O)N4CCC)cc3nc2c1`, for which the GI50 is 30.8 µM in assay [1]; 18.2 µM in [2]; 14.3 µM in [3]; 35.8 µM in assay [4]; 45.8 µM in assay [5]; 29.6 µM in [6]. For the same compound, the GI50 in assay [7] was 75.8 µM; in assay [9] it was 7.4 µM; in assay [10] it was more than 100 µM. Moreover, the TGI in [1] is more than 100 µM; in [2], more than 100 µM; in assay [3], 34.8 µM; in [4] it was more than 100 µM; in assay [5], more than 100 µM; in assay [6], more than 100 µM. Further, the TGI in assay [7], in assay [9] and in [10] was more than 100 µM each time.

With `CSCCC(NC(=O)OCc1ccccc1)P(=O)(O)c1ccccc1` (stereo not given), the TGI in [1], in [2], in assay [3], in [4], in assay [5] and in assay [6] was more than 100 µM throughout. Moreover, the TGI in assay [8], in assay [9] and in assay [10] was more than 100 µM throughout.

Turning to `COc1ccc(C2c3cc4c(cc3OC(O)(CO)C2C(=O)O)OCO4)cc1` (stereo not given) (tested in a mixture with another compound), the TGI in assay [3] is 33.1 µM; in assay [5], more than 100 µM; in assay [7], 34.7 µM; in assay [8] it was 29.1 µM; in assay [9], 49.5 µM.

With `COc1cc2c(cc1C)NC(=O)/C2=C/c1c(Cl)n(-c2ccccc2)c2ccccc12`, the TGI is more than 100 µM in assay [1]; 40.4 µM in [2]; 61.1 µM in assay [3]; more than 100 µM in assay [4]; more than 100 µM in assay [6]; 38.5 µM in [7]. In addition, the figures for the TGI in assay [8], in [9] and in [10] were 63.1 µM, 52.8 µM and 45.5 µM, respectively.

With `N#Cc1c(N)nc2c(c1-c1ccc(Br)cc1)CSc1ccccc1-2`, the TGI in assay [1] is more than 100 µM; in assay [2], 58.2 µM; in [3], more than 100 µM; in [4], more than 100 µM; in assay [5] it was more than 100 µM; in assay [7], 73.8 µM. In addition, the TGI in assay [8] was more than 100 µM; in assay [9], 61.1 µM; in assay [10] it was 77.3 µM.

In the case of `CC(=O)Oc1ccc(CO)cc1OC(C)=O`, the TGI in assay [3], in [5], in [6], in [7], in assay [8] and in [9] was more than 100 µM in each case.

Take `Nc1cc(N2CCOCC2)nc(=O)n1-c1ccc(Cl)cc1`: the TGI in [1], in assay [2], in assay [3], in assay [6], in assay [8] and in assay [9] was more than 100 µM throughout. In assay [10], the TGI is more than 100 µM.

As for `CCOC(=O)C(=O)NCCCN1CCOCC1`, the TGI in assay [3], in assay [5], in [6], in [7] and in assay [8] was more than 100 µM in each case.

Take `COC(=S)OC1CC(n2cnc3c(N)ncnc32)OC1CO[Si](C)(C)C(C)(C)C` (stereo not given): the TGI in assay [1] is 38.5 µM; in assay [2] it was 88.8 µM; in [3] it was 31.3 µM; in assay [5] it was 44 µM; in assay [7], 25.9 µM; in assay [8], 43.3 µM. Besides, the TGI in assay [9] was more than 100 µM; in [10] it was 42.1 µM.

For the compound `CC1(C)CCC[C@]2(C)[C@@H]1CC[C@@]13O[C@@H]1C1=C(CO)C(=O)OC1=C[C@@H]23`, the TGI is 39.7 µM in assay [1]; 12.8 µM in [3]; 55.9 µM in assay [5]; more than 100 µM in assay [6]; 36.4 µM in assay [7]; 33.9 µM in assay [8]. Besides, the TGI came to 62.8 µM in [9] and 61.5 µM in assay [10].

In the case of `O=c1[nH]c(Nc2ccc(Cl)cc2)nc2nc[nH]c12`, the TGI is more than 100 µM in assay [1]; more than 100 µM in assay [2]; more than 100 µM in assay [3]; 92.2 µM in assay [4]; more than 100 µM in assay [5]; more than 100 µM in assay [6]. Besides, the TGI in assay [8], in assay [9] and in assay [10] was more than 100 µM in each case.

As to `Cc1cc(=O)[nH]c(/N=C(\N)Nc2ccc(Cl)cc2)n1`, the TGI in [1], in [2], in assay [3], in assay [4], in assay [6] and in assay [7] was more than 100 µM in each case. Also, the TGI in assay [8], in assay [9] and in [10] was more than 100 µM each time.

On to `CCC(C)C(NC(=O)C1CCCN1C(=O)C(CC(C)C)NC(=O)C(CC(C)C)NC(=O)C(N)CC(C)C)C(=O)NC(C(=O)NCC(=O)NC(CC(N)=O)C(=O)NC(CC(C)C)C(=O)NC(CC(C)C)C(=O)NC(CC(C)C)C(N)=O)C(C)C` (stereo not given) (H-LLLPIVGNLLL-NH2; configuration not given here), for which the TGI in [1], in assay [2], in assay [3], in assay [4], in [5] and in assay [6] was more than 50 µM each time. Also, the TGI in assay [8], in assay [9] and in assay [10] was more than 50 µM throughout.

Values taken from PubChem BioAssay (NCI).
